{"source": "patent US12544375B2", "about": "“Small molecule therapeutic for parkinson's disease paired with a biomarker of therapeutic activity” (The Board of Trustees of the Leland Stanford Junior …, priority 2019, dated 2026)", "molecular_target": "T1, Myc-Miro1-7A (Homo sapiens, UniProt Q8IXI2, D530A/K427A/K454A/K528A/N428A/Q446A/S432A)", "T1 construct": "expressed in transfected cells; host or cells: human skin fibroblasts Healthy-1 and PD-2 (Lipofectamine 2000)", "T1 sequence (Q8IXI2 whole entry K427A/N428A/S432A/Q446A/K454A/K528A/D530A)": "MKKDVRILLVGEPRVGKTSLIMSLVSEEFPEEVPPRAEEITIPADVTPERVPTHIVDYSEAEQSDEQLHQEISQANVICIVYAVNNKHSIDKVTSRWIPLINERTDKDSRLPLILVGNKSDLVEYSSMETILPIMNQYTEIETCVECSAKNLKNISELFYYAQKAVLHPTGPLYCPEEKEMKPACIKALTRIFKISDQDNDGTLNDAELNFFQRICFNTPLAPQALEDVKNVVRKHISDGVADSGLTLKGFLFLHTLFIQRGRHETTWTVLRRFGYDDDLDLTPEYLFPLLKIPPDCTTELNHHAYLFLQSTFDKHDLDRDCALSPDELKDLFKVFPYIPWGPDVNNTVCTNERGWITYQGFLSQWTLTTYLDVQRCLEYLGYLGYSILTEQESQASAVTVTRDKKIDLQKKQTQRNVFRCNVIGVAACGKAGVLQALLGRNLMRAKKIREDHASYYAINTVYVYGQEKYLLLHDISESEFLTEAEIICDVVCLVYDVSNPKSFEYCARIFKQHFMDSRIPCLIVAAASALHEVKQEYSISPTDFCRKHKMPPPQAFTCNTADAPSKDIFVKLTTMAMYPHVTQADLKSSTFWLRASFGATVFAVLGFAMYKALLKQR", "assay": "Drug-resistant mutant Myc-Miro1-7A expressed in fibroblasts, immunostaining", "type": "cell-based", "conditions": "expressed in PD-2 fibroblasts, CCCP treatment", "method": "FIG. 2A-FIG. 2F. Miro1 Reducer Eliminates the Miro1 Defect in PD Fibroblasts. (FIG. 2A) Chemical properties of Miro1 Reducer. (FIG. 2B) Wild-type flies (w^1118) were fed with DMSO alone (0 μM Miro1 Reducer) or Miro1 Reducer in DMSO at 250 μM for 7 days, and lysed and blotted as indicated. The band intensities are normalized to those of Tubulin from the same blots. n=4. (FIG. 2C-FIG. 2E) Fibroblasts were treated, lysed, and blotted as indicated. (FIG. 2C) Band intensities are normalized to those of GAPDH from the same blots and compared to “Healthy-1, no treatment” except otherwise indicated. n=4. (FIG. 2D) Band intensities are normalized to those of ATP5β from the same blots and expressed as a percentage of the mean of “0 μM Miro1 Reducer with CCCP”. Mean±S.E.M is shown. n=3. (FIG. 2E) Band intensities are normalized to those of GAPDH from the same blots and compared to “Healthy-1, no CCCP, no MG132” except otherwise indicated. n=4. (FIG. 2F) Healthy-1 and PD-2 fibroblasts were transfected as indicated, and immunostained with anti-Myc (Miro1, green) and stained with Dapi (blue). The Miro1 intensity is normalized to that of mito-dsRed from the same cell and quantified across 37-62 cells from 5 fields each transfection, 3 independent transfections. Scale bars: 50 μm. For (FIG. 2C-FIG. 2F), both CCCP and Miro1 Reducer were dissolved in DMSO. […]", "data": [{"smiles": "O=C(Nc1ccc(Nc2cc(-n3ccnc3)ncn2)cc1)Nc1cccc(F)c1", "note": "[Miro1 Reducer]", "values": [{"measurement": "response of mutant Myc-Miro1-7A to compound", "result": "failed to respond"}]}]}
